“And” between values parts separate entries of the source, which are not always exact repeats. Equal values may be shown once.
Target: PKCα (Homo sapiens, UniProt P17252)
Experiment: [3H]PDBu displacement, 96-well plate filtration binding assay
Details: for Displacement assay raw data (CCPM): single replicate wells; for Residual [^3H]PDBu binding to PKCα (% of control): 20 μM compound concentration, mean + SEM, n = 2–8

Residual [^3H]PDBu binding to PKCα (% of control) | Structure (SMILES) | Displacement assay raw data (CCPM) (0,2 µM test substance) | Displacement assay raw data (CCPM) (1 µM test substance) | Displacement assay raw data (CCPM) (4 µM test substance) | Displacement assay raw data (CCPM) (10 µM test substance) | Displacement assay raw data (CCPM) (20 µM test substance) | Displacement assay raw data (CCPM) (30 µM test substance)
86.8 ± 7.8 % of control | CCCCC(CC)OC(=O)c1nc(CO)nc(OCc2cccc(C(F)(F)F)c2)c1C (stereo not shown) [Compound 2h, Heptan-3-yl 2-(hydroxymethyl)-5-methyl-6-[[3-(trifluoromethyl)benzyl]oxy]pyrimidine-4-carboxylate] | 5892 CCPM and 5535 CCPM and 6214 CCPM and 5732 CCPM and 5572 CCPM and 5002 CCPM | 5789 CCPM and 5065 CCPM and 5775 CCPM and 5836 CCPM and 5313 CCPM and 4792 CCPM | 5908 CCPM and 5351 CCPM and 5505 CCPM and 5457 CCPM and 5305 CCPM and 4736 CCPM | 5951 CCPM and 5634 CCPM and 5541 CCPM and 4751 CCPM and 4877 CCPM and 4485 CCPM | 5509 CCPM and 4316 CCPM and 5047 CCPM and 4061 CCPM and 4136 CCPM and 4187 CCPM | 5249 CCPM and 4747 CCPM and 5046 CCPM and 3715 CCPM and 4141 CCPM and 3683 CCPM
104.8 ± 5.3 % of control | CCCCCCCCOC(=O)c1cc(C(=O)OCCCCCCCC)nc(CO)n1 [Compound 1b, Dioctyl 2-(hydroxymethyl)pyrimidine-4,6-dicarboxylate] | 7480 CCPM and 1215 CCPM and 1126 CCPM and 1107 CCPM and 7956 CCPM and 7520 CCPM | 7638 CCPM and 1213 CCPM and 1392 CCPM and 1115 CCPM and 7562 CCPM and 7593 CCPM | 7531 CCPM and 1201 CCPM and 1408 CCPM and 1101 CCPM and 7673 CCPM and 7303 CCPM | 7793 CCPM and 1222 CCPM and 1214 CCPM and 1251 CCPM and 7474 CCPM and 6957 CCPM | 8435 CCPM and 1194 CCPM and 1172 CCPM and 1054 CCPM and 8891 CCPM and 9450 CCPM | 6677 CCPM and 1407 CCPM and 1081 CCPM and 1070 CCPM and 6691 CCPM and 6936 CCPM
88.5 ± 5.7 % of control | CCCCCCCOC(=O)c1nc(CO)nc(OCCCCCCC)c1C [Compound 2b, Heptyl 6-(heptyloxy)-2-(hydroxymethyl)-5-methylpyrimidine-4-carboxylate] | 13052 CCPM and 11682 CCPM and 11827 CCPM and 17977 CCPM and 18315 CCPM and 17029 CCPM | 11258 CCPM and 11582 CCPM and 12305 CCPM and 17512 CCPM and 18998 CCPM and 18500 CCPM | 10048 CCPM and 11019 CCPM and 11674 CCPM and 17585 CCPM and 17180 CCPM and 19863 CCPM | 10753 CCPM and 10221 CCPM and 10149 CCPM and 14691 CCPM and 16431 CCPM and 16220 CCPM | 9620 CCPM and 9492 CCPM and 9656 CCPM and 14771 CCPM and 14660 CCPM and 15872 CCPM | 9760 CCPM and 10346 CCPM and 10712 CCPM and 16581 CCPM and 14486 CCPM and 14880 CCPM
88.3 ± 2.7 % of control | CCCCCC(CC)OC(=O)c1cc(C(=O)OC(CC)CCCCC)nc(CO)n1 (stereo not shown) [Compound 1f, Di(octan-3-yl) 2-(hydroxymethyl)pyrimidine-4,6-dicarboxylate] | 8395 CCPM and 7761 CCPM and 8223 CCPM | 8430 CCPM and 8004 CCPM and 8035 CCPM | 8187 CCPM and 8110 CCPM and 8243 CCPM | 6268 CCPM and 7306 CCPM and 7650 CCPM | 7244 CCPM and 7065 CCPM and 7340 CCPM | 7174 CCPM and 7070 CCPM and 7370 CCPM
